PMC10226041, “Discovery of Ruthenium(II) Metallocompound and Olaparib Synergy for Cancer Combination Therapy” (Journal of Medicinal Chemistry, 2023)
Where a name gives a salt, the structure may show the parent alone.

Tests used:
MDA-MB-231 cells [1] = assay: MTT cell viability assay, MDA-MB-231 cells; assay type: cell-based, human; conditions: for IC50 / fold shift = IC50 (−OLAP)/IC50 (+OLAP): MDA-MB-231, 72 h; for IC50: MTT, read-out: IC50, –OLAP (compound alone); for fold shift = IC50 (−OLAP)/IC50 (+OLAP): Olaparib 10 μM
Procedure: (§1) Following treatment, solutions were removed, thiazolyl blue tetrazolium bromide (MTT, 0.5 mg/mL) reagent was added to the cells, and plates were incubated for 4 h. The reduced purple formazan crystals were solubilized with 100 μL of DMSO, and the absorbance at 570 nm (620 nm as reference wavelength) was measured using a microplate reader. The average in percent reduction of cell viability was expressed relative to untreated control cells. The combinatorial effect was evaluated by the generation of the compound dose–response curve and a shift of the IC50 value in the presence or absence of Olaparib (graphed and calculated using GraphPad Prism software).

[2] = octanol/water partition coefficient; source not given; cited from earlier work
MDA-MB-231 cells [3] = assay: Drug interaction analysis (Chou and Talalay combination index) with Olaparib from MTT data; assay type: cell-based, human; conditions: MDA-MB-231, Olaparib 10 μM, result in words
Procedure: as §1
Dose–effect curves for single agents and their combinations were generated from the MTT assay data, and the combination index (CI) values were calculated using CalcuSyn and CompuSyn software (Biosoft, Cambridge, UK) as established by Chou and Talalay.[43] CI < 0.9 indicates synergism, CI = 0.9–1.0 indicates additive, and CI > 1 indicates antagonism. GraphPad Prism Software was used to generate a 3-color scale based on CI values obtained, where synergism is represented by green, additive by yellow, and antagonism by red. The colors of each CI value were interpolated in between these constraints accordingly.

MCF7 cells [4] = assay: MTT cell viability assay, MCF7 cells; assay type: cell-based, human; conditions: for IC50: Homo sapiens, MCF7, 72 h, MTT, single agent, read-out: IC50 MCF7, –OLAP (single agent)
Procedure: as §1, with “Cells were seeded at 5 × 10^3 cells/well for MCF7 cells and 1 × 10^4 cells/well for MDA-MB-231 and MCF10A cells, respectively, in 96-well plates, allowed to adhere for 24 h, and treated as described in the main text. Following” for “Following”

MCF10A cells = assay: MTT cell viability assay, MCF10A normal breast cells; assay type: cell-based; conditions: Homo sapiens, MCF-10A, 72 h, single agent, read-out: IC50 MCF10A, –OLAP (single agent)
Procedure: as §1, with “Cells were seeded at 5 × 10^3 cells/well for MCF7 cells and 1 × 10^4 cells/well for MDA-MB-231 and MCF10A cells, respectively, in 96-well plates, allowed to adhere for 24 h, and treated as described in the main text. Following” for “Following”

MDA-MB-231R cells = assay: Clonogenic survival assay, Olaparib-resistant MDA-MB-231R cells; assay type: cell-based, human
Procedure: The Olaparib-resistant MDA-MB-231 cell line (MDA-MB-231R) was developed from the parental MDA-MB-231 cell line by long-term drug exposure (∼8 months, 10–100 μM Olaparib) in a similar manner described by Kim et al.[45] MDA-MB-231 cells were seeded at a density of 1.5 × 10^5 cells in a 25 cm^2 flask and allowed to adhere for 24 h. Cells were treated with a starting Olaparib concentration of 10 μM, and treatments were refreshed every 3 days. After each week, the confluency was assessed: if confluency is <50%, the treatment was stopped; if confluency is at 50–70%, the treatment was maintained; and if confluency is over 70%, a portion of the cells was frozen. When the cells adapted to a new drug concentration, cells were reseeded at a density of 1.5 × 10^5 cells in a new 25 cm^2 flask and allowed to adhere before the next exposure to the increased concentration of Olaparib. This procedure was repeated to achieve a final concentration of Olaparib of 100 μM. Following this, MDA-MB-231R cells were maintained in a low concentration of Olaparib (10 μM) to preserve resistance. […]
Cells were seeded at 1 × 10^3 cells/well in 6-well plates, allowed to adhere for 24 h, and treated as described in the main text. […] Individual colonies were counted using ImageJ software, and the survival fraction was determined (normalized to controls).

[5] = tested on: MDA-MB-231 3D tumor spheroids; assay: Spheroid growth inhibition, MDA-MB-231 spheroids; assay type: cell-based, human; conditions: compound 1 μM in combination with Olaparib 10 μM
Procedure: (§2) Spheroids were grown as described initially. […] Spheroids were treated with the identified combinations and single drugs alone for 72 h. Every other day thereafter, 50% of the treatment-containing medium was replaced. Spheroids were imaged every three days for a period of 12 days using a microscope attached to a digital camera. The structural integrity of spheroids following treatments was observed, and the volume was measured as initially described.

MCF7 3D tumor spheroids = assay: Spheroid growth inhibition, MCF7 spheroids; assay type: cell-based, human; conditions: compound 1 μM in combination with Olaparib 10 μM
Procedure: as §2

[6] = tested on: wild-type zebrafish (Danio rerio) embryos; conditions: in vivo
Procedure: Wild-type zebrafish embryos were obtained from breeding facilities at Danio Assay Laboratories Sdn.Bhd. (Universiti Putra Malaysia). […] Danio-SprintM embryo media were used as a control. Survival and hatching rates were observed under a microscope attached with a digital camera and imaged at 24, 48, 72, and 96 hpf. […] Four lethal endpoints were evaluated including coagulated embryos, lack of somite formation, non-detachment of the tail, and lack of heartbeat. All these characteristics were recorded every 24 hpf, except the heartbeat, which is visible after 48 hpf.

MDA-MB-231 cells [7] = assay: Clonogenic survival assay, MDA-MB-231 cells; assay type: cell-based; conditions: Homo sapiens; MDA-MB-231, clonogenic, 72 h treatment; read-out: IC50 values of OLAP, – Compound
Procedure: (§3) Cells were seeded at 1 × 10^3 cells/well in 6-well plates, allowed to adhere for 24 h, and treated as described in the main text. After treatment, solutions were removed, and cells were cultured in compound-free medium for 7–10 days to allow colony formation. Cells were then washed (1× PBS, twice), fixed (ice-cold 100% methanol, 15–20 min, 4 °C), and stained (0.5% crystal violet solution, 20 min). The staining solution was washed with water, and images were photographed with a digital camera. Individual colonies were counted using ImageJ software, and the survival fraction was determined (normalized to controls).

MCF7 cells [8] = assay: Clonogenic survival assay, MCF7 cells; assay type: cell-based; conditions: Homo sapiens, 72 h treatment, read-out: IC50 values of OLAP, – Compound
Procedure: as §3

MDA-MB-231 cells [9] = conditions: 72 h, 10 µM
Procedure: Cells were seeded at 3 × 10^5 cells/well in 6-well plates, allowed to adhere for 24 h, and treated as described in the main text. After treatment, cells were trypsinized and washed with 1× PBS twice. This was followed by the addition of 500 μL of 1× binding buffer and 5 μL of Annexin V-FITC (Invitrogen). The cell-containing mixture was incubated for 20 min at RT. A total of 5 μL of PI (20 μg/mL) was added prior to flow cytometric analysis using a flow cytometer, and results were analyzed using NovoExpress software. For each sample, a minimum of 10,000 cells were counted.

[10] = tested on: TNBC and lung cancer cells; set-up: method as in PMID 31898884, PMID 36702871; conditions: sub-cytotoxic concentrations of Ru-PIP; cited from earlier work

## CNCc1ccc(-c2cc(-c3nc(-c4ccc(S(=O)(=O)C(C)C)cc4)cnc3N)on2)cc1 [Berzosertib, reference compound]
MDA-MB-231 cells [1]; Homo sapiens, single agent
  IC50: 0.46 ± 0.01 µM
MDA-MB-231 cells [1]
  fold shift = IC50 (−OLAP)/IC50 (+OLAP): 1.7
[2]
  Log P: 3.16

## C[C@@H]1COCCN1c1cc(C2([S@](C)(=N)=O)CC2)nc(-c2cc[nH]c3nccc2-3)n1 [Ceralasertib, reference compound]
MDA-MB-231 cells [1]; Homo sapiens, single agent
  IC50: 4.4 ± 0.4 µM
MDA-MB-231 cells [1]
  fold shift = IC50 (−OLAP)/IC50 (+OLAP): 0.9
[2]
  Log P: 1.91

## [Ru+2].c1ccc(-c2ccccn2)nc1.c1ccc(-c2ccccn2)nc1.c1ccc(-c2nc3c4cccnc4c4ncccc4c3[nH]2)cc1 [Compound 1, [Ru(bpy)2(PIP)]^2+]
MDA-MB-231 cells [1]; single agent
  IC50: > 100 µM
MDA-MB-231 cells [1]
  fold shift = IC50 (−OLAP)/IC50 (+OLAP): >1.3

## c1ccc(-c2nc3c4ccc[n+]5c4c4c(ccc[n+]4[Ru-4]546([n+]5cccc7ccc8ccc[n+]4c8c75)[n+]4cccc5ccc7ccc[n+]6c7c54)c3[nH]2)cc1 [Compound 3, [Ru(phen)2(PIP)]^2+]
MDA-MB-231 cells [1]; single agent
  IC50: 29.2 ± 3.7 µM
MDA-MB-231 cells [1]
  fold shift = IC50 (−OLAP)/IC50 (+OLAP): 3.7
MDA-MB-231 cells [3]
  Synergy with Olaparib (CI scores of less than 0.9 considered synergistic): additive relationship with Olaparib

## Oc1ccc(-c2nc3c4ccc[n+]5c4c4c(ccc[n+]4[Ru-4]546([n+]5cccc7ccc8ccc[n+]4c8c75)[n+]4cccc5ccc7ccc[n+]6c7c54)c3[nH]2)cc1 [Compound 4, [Ru(phen)2(H-PIP)]^2+]
MDA-MB-231 cells [1]; single agent
  IC50: 11.6 ± 3.2 µM
MDA-MB-231 cells [1]
  fold shift = IC50 (−OLAP)/IC50 (+OLAP): 6.8
MDA-MB-231 cells [3]
  Synergy with Olaparib (CI scores of less than 0.9 considered synergistic): additive relationship with Olaparib

## Cc1cc(C)c2nc3c4ccc[n+]5c4c4c(ccc[n+]4[Ru-4]546([n+]5ccccc5-c5cccc[n+]54)[n+]4ccccc4-c4cccc[n+]46)c3nc2c1 [Compound 5, [Ru(bpy)2(dmdppz)]^2+]
MDA-MB-231 cells [1]; single agent
  IC50: 75.1 ± 12.2 µM
MDA-MB-231 cells [1]
  fold shift = IC50 (−OLAP)/IC50 (+OLAP): <0.8

## Cc1cc(C)c2nc3c4ccc[n+]5c4c4c(ccc[n+]4[Ru-4]546([n+]5cc(C)ccc5-c5ccc(C)c[n+]54)[n+]4cc(C)ccc4-c4ccc(C)c[n+]46)c3nc2c1 [Compound 6, [Ru(5,5′dmb)2(dmdppz)]^2+]
MDA-MB-231 cells [1]; single agent
  IC50: 87.4 ± 2.3 µM
MDA-MB-231 cells [1]
  fold shift = IC50 (−OLAP)/IC50 (+OLAP): 5.0

## Cc1cc[n+]2c(c1)-c1cc(C)cc[n+]1[Ru-4]213([n+]2ccc(C)cc2-c2cc(C)cc[n+]21)[n+]1cccc2c4nc5cc(C)cc(C)c5nc4c4ccc[n+]3c4c21 [Compound 7, [Ru(4,4′dmb)2(dmdppz)]^2+]
MDA-MB-231 cells [1]; single agent
  IC50: 34.3 ± 0.5 µM
MDA-MB-231 cells [1]
  fold shift = IC50 (−OLAP)/IC50 (+OLAP): 2.3
MDA-MB-231 cells [3]
  Synergy with Olaparib (CI scores of less than 0.9 considered synergistic): additive relationship with Olaparib

## COc1cc(/C=C/C(=O)CC(=O)/C=C/c2ccc(O)c(OC)c2)ccc1O [Curcumin, reference compound]
MDA-MB-231 cells [1]; Homo sapiens, single agent
  IC50: 25.1 ± 2.4 µM
MCF7 cells [4]
  IC50: 22.5 ± 4.1 µM
MCF10A cells
  IC50: 37.4 ± 6 µM
MDA-MB-231 cells [3]
  Synergy with Olaparib (CI scores of less than 0.9 considered synergistic): synergistic over most of the tested concentrations
MDA-MB-231R cells; MDA-MB-231R, compound 1 μM alongside Olaparib 0.1–100 μM, 72 h
  inhibition of colony formation: retains the ability to inhibit colony formation in a similar manner to the parental MDA-MB-231 cells
[5]
  day of complete disintegration of spheroids: 6 days
MCF7 3D tumor spheroids
  day of complete disintegration of spheroids: 9 days
[6]
  hatching rate: neither 10 nor Curcumin impacted the hatching rate significantly
[2]
  Log P: 4.12

## O=c1[nH]cc(F)c(=O)[nH]1 [Fluorouracil, reference compound]
MDA-MB-231 cells [1]; Homo sapiens, single agent
  IC50: 12.1 ± 3 µM

## Cc1nc2c(O)cccc2c(=O)[nH]1 [NU1025]
[2]
  Log P: 0.47

## O=C(c1cc(Cc2n[nH]c(=O)c3ccccc23)ccc1F)N1CCN(C(=O)C2CC2)CC1 [Olaparib]
MDA-MB-231 cells [1]; Homo sapiens, single agent
  IC50: 80.9 ± 15 µM
MDA-MB-231 cells [1]; single agent, 72 h
  SI MDA-MB-231 (IC50 MCF10A/IC50 cancer cell line), single agent: >1.2
MCF7 cells [4]; 72 h
  SI MCF7 (IC50 MCF10A/IC50 cancer cell line), single agent: >1.4
MCF7 cells [4]
  IC50: 69.6 ± 6.3 µM
MCF10A cells
  IC50: > 100 µM
MDA-MB-231 cells [7]
  IC50: > 10 µM
MCF7 cells [8]
  IC50: 2.72 ± 0.45 µM
MDA-MB-231R cells; clonogenic survival assay
  level of resistance of MDA-MB-231R compared to parental MDA-MB-231 cells: 28 fold
MDA-MB-231 cells [9]
  percentage of cells in quadrant Q3-1: 0.34%
  percentage of cells in quadrant Q3-2 (apoptotic): 1.44%
  percentage of cells in quadrant Q3-3: 82.66%
  percentage of cells in quadrant Q3-4 (apoptotic): 15.56%
[6]; 96 hpf, 25 mg/L
  pericardial edema (PE): 45.8% ± 17.7
  spinal deformity (SD): 75.0% ± 23.6
  yolk sac edema (YSE): 45.8% ± 29.5

## O=c1c(O)c(-c2ccc(O)c(O)c2)oc2cc(O)cc(O)c12 [Quercetin, reference compound]
MDA-MB-231 cells [1]; Homo sapiens, single agent
  IC50: > 100 µM

## [Ru+2].c1ccc(-c2nc3c4cccnc4c4ncccc4c3[nH]2)cc1.c1ccc2nc3c4cccnc4c4ncccc4c3nc2c1.c1ccc2nc3c4cccnc4c4ncccc4c3nc2c1 [Ru-PIP, [Ru(dppz)2(PIP)]^2+]
[10]
  increase in Olaparib potency: > 300 fold

## N.N.[Cl][Pt][Cl] [cisplatin, reference compound]
MDA-MB-231 cells [1]; single agent
  IC50: 35.3 ± 5.5 µM

## Nc1ccn([C@@H]2O[C@H](CO)[C@@H](O)C2(F)F)c(=O)n1 [gemcitabine hydrochloride, reference compound]
MDA-MB-231 cells [1]; Homo sapiens, single agent
  IC50: 1.6 ± 0.8 µM
MDA-MB-231 cells [1]
  fold shift = IC50 (−OLAP)/IC50 (+OLAP): 2.7
